In article PMC12847094, “Casticin inhibits AKR1C3 and enhances abiraterone efficacy in castration-resistant prostate cancer” (Journal of Natural Medicines, 2025) one finds IC50 data, which are given here for one compound.

This test concerns the target T1, aldo-keto reductase 1C3 (AKR1C3) (Homo sapiens, UniProt P42330).
T1 construct: recombinant hAKR1C3 expressed in E. coli Rosetta (DE3), pET21b
The experiment in a line: NADPH oxidation at […] nm with […],10-phenanthrenequinone, recombinant enzyme; also coumberone reduction in […]1 cells. Type of test: biochemical.

T1 sequence (P42330 whole entry): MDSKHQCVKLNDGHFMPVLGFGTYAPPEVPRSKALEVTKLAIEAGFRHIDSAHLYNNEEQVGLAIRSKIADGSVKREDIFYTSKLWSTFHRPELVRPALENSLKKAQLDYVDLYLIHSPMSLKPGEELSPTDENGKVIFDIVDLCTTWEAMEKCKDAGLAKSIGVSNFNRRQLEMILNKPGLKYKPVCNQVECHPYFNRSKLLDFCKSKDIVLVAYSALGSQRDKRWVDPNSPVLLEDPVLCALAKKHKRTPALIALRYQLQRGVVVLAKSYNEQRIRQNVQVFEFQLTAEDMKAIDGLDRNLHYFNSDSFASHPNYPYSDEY

As for `COc1ccc(-c2oc3cc(OC)c(OC)c(O)c3c(=O)c2OC)cc1O` [CAS, casticin], the IC50 turned out to be 5.99 µM.
